This is an account of results in patent US5753635A, “Purine derivatives and their use as anti-coagulants” (Berlex Laboratories, Inc., priority 1996, dated 1998).

Assay [1] deals with T1, Human tissue plasminogen activator (tPA) (Two chains, Sigma) (Homo sapiens, UniProt P00750).
T1 construct: purchased Sigma
Nature of the assay: In vitro chromogenic assay for tissue plasminogen activator. The settings on record: substrate concentration stated equal to Km; 10 nM tPA, pH 7.5, ambient temperature; read-out: Km (S2288). The format is biochemical. The protocol:
(§1) The activities were determined as an initial rate of cleavage of the peptide p-nitroanilide by the enzyme. The cleavage product, p-nitroaniline, absorbs at 405 nm with a molar extinction coefficient of 9920 M^-1 cm^-1.
(§2) 50 mM TrisHCl, 150 mM NaCl, 2.5 mM CaCl2, and 0.1% polyethylene glycol 6000, pH 7.5.
3. Human tissue plasminogen activator (tPA) (Two chains, Sigma) stock solution: 1 mg/mL, stored at -80° C. (working solution (2×): 1361 ng/mL in assay buffer, prepare prior to use).
3. S2288 (tPA assay) stock solution: 10 mM in dH2 O, stored at 4° C. (working solution (4×):
1484 μM in assay buffer).
Assays were performed in 96-well microtiter plates in a total volume of 200 μl. […] Concentrations of the standard inhibitor compound in the assay were from 5 μM to 0.021 μM in 1 to 3 dilution. Concentration of the test compounds in the assay typically were from 10 μM to 0.041 μM in 1 to 3 dilution. […]
(§3) The enzyme kinetics were measured at 405 nm at 10 seconds intervals for five minutes in a THERMOmax plate reader at ambient temperature.
(§4) Enzyme rates were calculated as mOD/min based on the first two minutes readings. The IC50 values were determined by fitting the data to the log-logit equation (linear) or the Morrison equation (non-linear) with an EXCEL spread-sheet. […]

For a further assay, the target named is T2, Human thrombin (Homo sapiens, UniProt P00734).
T2 construct: Human thrombin stock solution; purchased Enzyme Research Lab
Nature of the assay: In vitro chromogenic assay for thrombin. In kind it is biochemical. The settings on record: substrate concentration stated equal to Km; 20 nM thrombin, pH 7.5, ambient temperature; read-out: Km (S2302). As for the experimental part:
as §1, §2
2. Human thrombin stock solution: Stored at -80° C. (working solution (2×): 1200 ng/mL or 40 nM in assay buffer, prepare prior to use).
2. S2302 (Thrombin assay) stock solution: 10 mM in dH2 O, stored at 4° C. (working solution (4×): 1200 μM in assay buffer).
Assays were performed in 96-well microtiter plates in a total volume of 200 μl. […] Concentrations of the standard inhibitor compound in the assay were from 5 μM to 0.021 μM in 1 to 3 dilution. Concentration of the test compounds in the assay typically were from 10 μM to 0.041 μM in 1 to 3 dilution. For potent test compounds, the concentrations used in the factor Xa assays were further diluted 100 fold (100 nM to 0.41 nM) or 1000 fold (10 nM to 0.041 nM). […]
as §3, §4

Non-standard residues stand in square brackets, D forms with d. Residues, ends and D or L forms follow the SMILES beside them. *: point of attachment. pNA = O=[N+]([O-])c1ccc(N*)cc1

T1 sequence (P00750 311-562 limits assumed): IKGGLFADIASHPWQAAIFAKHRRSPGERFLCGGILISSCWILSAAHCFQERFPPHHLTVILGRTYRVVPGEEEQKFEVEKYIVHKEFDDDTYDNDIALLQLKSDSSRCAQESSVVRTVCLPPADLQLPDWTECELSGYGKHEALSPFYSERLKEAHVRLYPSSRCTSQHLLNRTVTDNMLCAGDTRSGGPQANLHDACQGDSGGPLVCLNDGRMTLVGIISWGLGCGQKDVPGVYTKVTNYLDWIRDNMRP
T1 sequence (P00750 36-310 partner limits assumed): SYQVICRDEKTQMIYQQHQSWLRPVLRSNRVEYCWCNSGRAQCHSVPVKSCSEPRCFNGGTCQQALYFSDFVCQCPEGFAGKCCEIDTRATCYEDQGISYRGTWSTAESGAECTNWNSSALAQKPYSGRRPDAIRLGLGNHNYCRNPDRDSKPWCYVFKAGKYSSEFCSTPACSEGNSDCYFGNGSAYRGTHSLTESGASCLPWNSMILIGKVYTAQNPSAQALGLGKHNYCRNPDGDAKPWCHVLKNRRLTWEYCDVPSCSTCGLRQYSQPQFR

On to `CC[C@@H](C)[C@@H](N)C(=O)N1CCC[C@H]1C(=O)N[C@@H](CCCN=C(N)N)C(=O)Nc1ccc([N+](=O)[O-])cc1` [Example S2288] (H-[dI]-Pro-Arg-pNA), for which, in assay [1], the Michaelis constant (Km) worked out at 371 µM.
In the case of `N=C(N)NCCC[C@H](NC(=O)[C@H](Cc1ccccc1)NC(=O)[C@H]1CCCN1)C(=O)Nc1ccc([N+](=O)[O-])cc1` [Example S2302] (H-[dP]-Phe-Arg-pNA), the Km on Human thrombin came to 300 µM.

In general, Km refers to the concentration of substrate that gives half-maximal velocity.
